Patent publication US11912701B2, “Protein kinase inhibitors for promoting liver regeneration or reducing or preventing hepatocyte death” (HEPAREGENIX GMBH, priority 2018, dated 2024)

What was measured:
MKK7 [1] = molecular target: T1, MKK7 (Homo sapiens, UniProt O14733); experiment: KINOMEscan competition binding assay, MKK7; parameters: M1/R419; host or cells: HEK-293; conditions: ratio PoC (off-target)/PoC (MKK4)
T1 sequence (O14733 1-419): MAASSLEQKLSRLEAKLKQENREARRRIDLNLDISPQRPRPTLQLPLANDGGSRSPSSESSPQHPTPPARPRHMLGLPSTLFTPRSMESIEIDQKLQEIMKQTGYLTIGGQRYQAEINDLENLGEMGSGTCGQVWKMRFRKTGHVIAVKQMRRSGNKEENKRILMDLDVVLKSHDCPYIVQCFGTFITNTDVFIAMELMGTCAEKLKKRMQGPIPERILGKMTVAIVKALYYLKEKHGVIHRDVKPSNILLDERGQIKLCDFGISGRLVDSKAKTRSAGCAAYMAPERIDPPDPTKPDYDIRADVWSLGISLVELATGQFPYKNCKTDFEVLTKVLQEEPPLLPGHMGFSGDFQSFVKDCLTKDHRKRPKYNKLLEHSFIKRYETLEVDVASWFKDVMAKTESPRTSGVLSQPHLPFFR
Method in brief: (§1)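 DNA-tagged kinases expressed in HEK-293 cells compete between immobilized ligand on blocked beads and test compound at 100 nM; kinase retained on beads quantified by qPCR of the tag.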

MKK4 [2] = molecular target: T2, MKK4 (Homo sapiens, UniProt P45985); experiment: KINOMEscan competition binding assay, MKK4; conditions: residual percent of control binding (PoC) at 100 nM
T2 construct: S84/D399; host or cells: HEK-293
T2 sequence (P45985 84-399): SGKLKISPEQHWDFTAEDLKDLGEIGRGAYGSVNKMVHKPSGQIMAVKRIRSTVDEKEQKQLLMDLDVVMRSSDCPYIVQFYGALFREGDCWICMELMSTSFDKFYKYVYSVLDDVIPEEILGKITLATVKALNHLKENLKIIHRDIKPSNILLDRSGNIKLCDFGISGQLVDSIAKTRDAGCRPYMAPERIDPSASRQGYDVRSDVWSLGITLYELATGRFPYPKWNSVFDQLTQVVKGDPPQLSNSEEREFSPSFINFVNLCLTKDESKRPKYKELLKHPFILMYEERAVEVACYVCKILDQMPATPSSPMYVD
Method in brief: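 Tested at 100 nM and reported as percent of control binding (PoC). MKK4 was produced in HEK-293 cells and DNA-tagged. Displacement from ligand-coated, blocked beads was read by qPCR of eluted kinase.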

MKK7 [3] = molecular target: T1, MKK7; experiment: 33PanQinase enzyme assay, MKK7; type: biochemical; parameters: purchased ProQinase GmbH, Freiburg, Germany (33PanQinase Assay Service); conditions: ratio IC50(MKK7)/IC50(MKK4)
Method in brief: (§2)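 Off-target selectivity is the ratio IC50(off-target)/IC50(MKK4), with IC50 values from least-squares fitting and single-point data as % residual activity. Reactions of enzyme/substrate mix, ATP and compound ran 60 min at 30° C before H3PO4 stop; ^33P incorporation read on a scintillation counter.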

MKK4 [4] = molecular target: T3, MKK4 (Homo sapiens, UniProt P45985); experiment: 33PanQinase enzyme assay, MKK4; type: biochemical; conditions: assay 'IC50'; read-out: Potency MKK4 (IC50)
T3 construct: purchased ProQinase GmbH, Freiburg, Germany (33PanQinase Assay Service)
T3 sequence (P45985 1-399): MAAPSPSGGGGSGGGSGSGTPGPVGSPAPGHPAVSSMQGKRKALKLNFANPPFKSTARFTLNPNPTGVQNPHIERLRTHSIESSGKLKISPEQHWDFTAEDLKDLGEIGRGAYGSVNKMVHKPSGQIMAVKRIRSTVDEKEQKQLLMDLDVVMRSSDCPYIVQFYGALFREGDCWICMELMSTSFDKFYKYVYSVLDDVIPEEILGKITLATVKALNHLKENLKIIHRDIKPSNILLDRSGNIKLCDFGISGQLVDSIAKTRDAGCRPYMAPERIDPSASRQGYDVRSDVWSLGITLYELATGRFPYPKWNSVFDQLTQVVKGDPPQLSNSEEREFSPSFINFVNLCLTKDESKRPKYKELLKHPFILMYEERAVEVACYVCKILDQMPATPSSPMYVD
Method in brief: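 Inhibition measured as 33Pi transfer to substrate after a 60-min, 30 °C reaction, acid-stopped and scintillation-counted.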

JNK1 [5] = molecular target: T4, JNK1 (Homo sapiens, UniProt P45983); experiment: 33PanQinase enzyme assay, JNK1; type: biochemical; parameters: purchased ProQinase GmbH, Freiburg, Germany (33PanQinase Assay Service); conditions: ratio IC50(JNK1)/IC50(MKK4)
Method in brief: as §2
Target sequence in this assay (P45983 whole entry): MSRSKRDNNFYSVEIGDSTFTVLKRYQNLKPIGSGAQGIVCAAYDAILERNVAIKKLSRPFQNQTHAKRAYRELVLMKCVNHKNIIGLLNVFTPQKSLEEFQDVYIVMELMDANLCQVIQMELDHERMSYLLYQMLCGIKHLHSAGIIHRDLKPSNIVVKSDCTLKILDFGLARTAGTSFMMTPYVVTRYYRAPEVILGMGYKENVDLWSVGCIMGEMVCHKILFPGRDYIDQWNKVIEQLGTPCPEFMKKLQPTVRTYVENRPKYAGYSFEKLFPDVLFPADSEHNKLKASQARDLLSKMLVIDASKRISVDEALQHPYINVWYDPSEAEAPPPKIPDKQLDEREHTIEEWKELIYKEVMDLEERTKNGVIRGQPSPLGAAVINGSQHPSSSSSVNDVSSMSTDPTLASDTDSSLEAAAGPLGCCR

BRaf [6] = molecular target: T5, BRaf (Homo sapiens, UniProt P15056); experiment: KINOMEscan competition binding assay, BRaf; conditions: ratio PoC (off-target)/PoC (MKK4)
T5 construct: purchased ProQinase GmbH, Freiburg, Germany (33PanQinase Assay Service)
Method in brief: as §1

BRaf [7] = molecular target: T5, BRaf; experiment: 33PanQinase enzyme assay, BRaf; type: biochemical; conditions: ratio IC50(BRaf)/IC50(MKK4)
Method in brief: as §2

JNK1 [8] = molecular target: T4, JNK1; experiment: KINOMEscan competition binding assay, JNK1; parameters: M1/Q384; host or cells: HEK-293; conditions: ratio PoC (off-target)/PoC (MKK4)
Method in brief: as §1
Target sequence in this assay (P45983 1-384 isoform P45983-2): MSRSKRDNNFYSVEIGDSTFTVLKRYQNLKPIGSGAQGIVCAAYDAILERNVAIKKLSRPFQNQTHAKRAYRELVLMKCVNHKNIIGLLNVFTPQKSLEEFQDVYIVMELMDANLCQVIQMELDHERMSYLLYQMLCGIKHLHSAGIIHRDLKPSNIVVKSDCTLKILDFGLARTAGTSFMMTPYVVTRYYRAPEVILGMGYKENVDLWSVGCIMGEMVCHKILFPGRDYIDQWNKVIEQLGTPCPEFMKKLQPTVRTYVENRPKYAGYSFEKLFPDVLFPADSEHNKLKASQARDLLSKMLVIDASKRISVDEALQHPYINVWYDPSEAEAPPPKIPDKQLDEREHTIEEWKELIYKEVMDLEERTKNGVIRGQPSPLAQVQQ

T5 sequence (P15056 whole entry, species assumed): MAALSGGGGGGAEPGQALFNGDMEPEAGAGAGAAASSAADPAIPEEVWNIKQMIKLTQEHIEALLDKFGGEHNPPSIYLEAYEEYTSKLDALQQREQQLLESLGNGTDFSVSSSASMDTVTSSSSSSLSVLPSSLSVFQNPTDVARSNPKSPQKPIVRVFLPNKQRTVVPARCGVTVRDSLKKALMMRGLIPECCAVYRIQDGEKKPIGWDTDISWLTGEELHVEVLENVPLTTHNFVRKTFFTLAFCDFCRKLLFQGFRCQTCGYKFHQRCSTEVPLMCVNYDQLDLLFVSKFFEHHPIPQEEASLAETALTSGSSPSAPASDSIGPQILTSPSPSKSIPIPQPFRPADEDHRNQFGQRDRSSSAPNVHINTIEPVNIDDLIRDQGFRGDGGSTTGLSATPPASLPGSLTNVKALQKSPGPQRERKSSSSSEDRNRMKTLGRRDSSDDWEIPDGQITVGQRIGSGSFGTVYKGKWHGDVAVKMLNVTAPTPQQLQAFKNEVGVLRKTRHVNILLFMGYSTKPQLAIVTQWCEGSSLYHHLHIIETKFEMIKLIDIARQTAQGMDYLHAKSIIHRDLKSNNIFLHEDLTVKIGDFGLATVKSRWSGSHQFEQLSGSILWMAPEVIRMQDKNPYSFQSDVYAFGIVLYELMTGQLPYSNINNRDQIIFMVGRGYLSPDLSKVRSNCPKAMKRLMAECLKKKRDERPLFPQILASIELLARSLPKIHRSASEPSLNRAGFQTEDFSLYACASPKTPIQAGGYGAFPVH

Row | SMILES | selectivity based on % Ctrl @100 nM vs. MKK7 (MKK7 [1]) | MKK4 [% Ctrl @ 100 nM (MKK4 [2]) | Selectivity IVIKK7, IC50(off-target)/IC50(MKK4) (MKK7 [3]) | IC50 (MKK4 [4]) [nM] | Selectivity JNK1, IC50(off-target)/IC50(MKK4) (JNK1 [5]) | selectivity based on % Ctrl @100 nM vs. Braf (BRaf [6]) | Selectivity Braf, IC50(off-target)/IC50(MKK4) (BRaf [7]) | selectivity based on % Ctrl @100 nM vs. JNK1 (JNK1 [8])
1 | CCCS(=O)(=O)Nc1ccc(F)c(C(=O)c2c[nH]c3ncc(-c4ccc(C(=O)O)cc4)cc23)c1F [Example 108, 4-(3-(2,6-difluoro-3-(propylsulfonamido)benzoyl)-1H-pyrrolo[2,3-b]pyridin-5-yl)benzoic acid] | +++ (Ratio > 100) | +++ (PoC < 1) | +++ (IC50(off-target)/IC50(MKK4) > 100) | < 100 | + (10 ≥ IC50(off-target)/IC50(MKK4) > 3) | ++ (100 ≥ ratio > 10) | ◯ (3 ≥ IC50(off-target)/IC50(MKK4)) | +++ (Ratio > 100)
2 | CCCS(=O)(=O)Nc1ccc(F)c(C(=O)c2c[nH]c3ncc(-c4ccc(C(N)=O)cc4)cc23)c1F [Example 109, 4-(3-(2,6-difluoro-3-(propylsulfonamido)benzoyl)-1H-pyrrolo[2,3-b]pyridin-5-yl)benzamide] | +++ (Ratio > 100) | +++ (PoC < 1) | +++ (IC50(off-target)/IC50(MKK4) > 100) | 100 to 1000 | + (10 ≥ IC50(off-target)/IC50(MKK4) > 3) | + (10 ≥ ratio > 3) | ◯ (3 ≥ IC50(off-target)/IC50(MKK4)) | +++ (Ratio > 100)
3 | O=C(c1cccc(NS(=O)(=O)Cc2ccccc2)c1F)c1c[nH]c2ncc(-c3ccc(Cl)cc3)cc12 [Example 124, N-(3-(5-(4-chlorophenyl)-1H-pyrrolo[2,3-b]pyridine-3-carbonyl)-2-fluorophenyl)-1-phenylmethanesulfonamide] | ++ (100 ≥ ratio > 10) | + (3 ≤ PoC < 30) | +++ (IC50(off-target)/IC50(MKK4) > 100) | 100 to 1000 | ◯ (3 ≥ IC50(off-target)/IC50(MKK4)) | ++ (100 ≥ ratio > 10) | +++ (IC50(off-target)/IC50(MKK4) > 100) | ++ (100 ≥ ratio > 10)

Further lines, results first:

Row | selectivity based on % Ctrl @100 nM vs. MKK7 (MKK7 [1]) | MKK4 [% Ctrl @ 100 nM (MKK4 [2]) | Selectivity IVIKK7, IC50(off-target)/IC50(MKK4) (MKK7 [3]) | IC50 (MKK4 [4]) [nM] | Selectivity JNK1, IC50(off-target)/IC50(MKK4) (JNK1 [5]) | selectivity based on % Ctrl @100 nM vs. Braf (BRaf [6]) | Selectivity Braf, IC50(off-target)/IC50(MKK4) (BRaf [7]) | selectivity based on % Ctrl @100 nM vs. JNK1 (JNK1 [8]) | SMILES
4 | ++ (100 ≥ ratio > 10) | + (3 ≤ PoC < 30) | +++ (IC50(off-target)/IC50(MKK4) > 100) | 100 to 1000 | + (10 ≥ IC50(off-target)/IC50(MKK4) > 3) | + (10 ≥ ratio > 3) | ◯ (3 ≥ IC50(off-target)/IC50(MKK4)) | ++ (100 ≥ ratio > 10) | CCCS(=O)(=O)Nc1ccc(F)c(C(=O)c2c[nH]c3ncc(-c4ccc([N+](=O)[O-])cc4)cc23)c1F [Example 107, N-(2,4-difluoro-3-(5-(4-nitrophenyl)-1H-pyrrolo[2,3-b]pyridine-3-carbonyl)phenyl)propane-1-sulfonamide]
5 | ◯ (3 ≥ Ratio) | ◯ (30 ≤ PoC) | +++ (IC50(off-target)/IC50(MKK4) > 100) | 100 to 1000 | + (10 ≥ IC50(off-target)/IC50(MKK4) > 3) | ◯ (3 ≥ Ratio) | ◯ (3 ≥ IC50(off-target)/IC50(MKK4)) | ◯ (3 ≥ Ratio) | CCCS(=O)(=O)Nc1ccc(F)c(C(=O)c2c[nH]c3ncc(-c4ccc(OC(F)(F)F)cc4)cc23)c1F [Example 111, N-(2,4-difluoro-3-(5-(4-(trifluoromethoxy)phenyl)-1H-pyrrolo[2,3-b]pyridine-3-carbonyl)phenyl)propane-1-sulfonamide]
